Publication PMC3682108 (Journal of Infection and Chemotherapy, 2012)
≈ marks a conversion by molar mass, not a printed value. Like-named read-outs stand apart in the source and are kept apart here.

What was measured:
[1] = test system: baseline MRSA isolates; assay: microbe, parasite or virus in culture; assay type: cell-based, Staphylococcus aureus
[2] = test system: methicillin-resistant Staphylococcus aureus (MRSA); assay type: in vivo, Japanese patients; details: for Clinical success %, Wound or burn: MITT-MRSA, daptomycin 4 mg/kg qd n/N 31/38, vancomycin 1 g bid 11/13, at TOC; for Clinical response, wound or burn: daptomycin 4 mg/kg qd, wound or burn n = 38
[3] = test system: methicillin-resistant Staphylococcus aureus (MRSA); assay: EAC-assessed microbiological response at test-of-cure, MITT-MRSA population; assay type: in vivo, Japanese patients; details: daptomycin n/N 0/2, vancomycin 0/1, at TOC
[4] = Safety evaluation; assay type: in vivo, Japanese patients; details: for Recipients with CPK levels >200 U/l: human, in vivo; for Maximum CPK level in the recipient with CPK >500 U/l: single patient per group
[5] = Population pharmacokinetics of daptomycin in plasma by baseline renal function; details: 4 mg/kg once daily
[6] = 74 baseline MRSA isolates at screening, broth microdilution, CLSI M7-A7

Compound | MIC range [1, 6] [µg/mL] | MIC90 ([1]; Staphylococcus aureus, MRSA) [µg/mL] | Clinical success %, Wound or burn [2] [%] | Microbiological success %, Other infection [3] [%] | Recipients with CPK levels >200 U/l [4] [%] | Maximum CPK level in the recipient with CPK >500 U/l [4] | MIC90 [1, 6] [µg/mL] | also measured
CC(=O)NC[C@H]1CN(c2ccc(N3CCOCC3)c(F)c2)C(=O)O1 [linezolid] | 1 to 4 | 2 (≈ 5.93 µM) | – | – | – | – | – | –
Cc1onc(-c2ccccc2)c1C(=O)N[C@@H]1C(=O)N2[C@@H]1SC(C)(C)[C@@H]2C(=O)O [oxacillin] | – | > 128 | – | – | – | – | – | –
CCCCCCCCCC(=O)N[C@@H](Cc1c[nH]c2ccccc12)C(=O)N[C@H](CC(N)=O)C(=O)N[C@@H](CC(=O)O)C(=O)N[C@@H]1C(=O)NCC(=O)N[C@@H](CCCN)C(=O)N[C@@H](CC(=O)O)C(=O)N[C@H](C)C(=O)N[C@@H](CC(=O)O)C(=O)NCC(=O)N[C@H](CO)C(=O)N[C@@H]([C@H](C)CC(=O)O)C(=O)N[C@@H](CC(=O)c2ccccc2N)C(=O)O[C@@H]1C [Daptomycin] | – | – | 81.6 | 0.0 | 9.1 | 2,545 U/l | – | Clinical response, wound or burn ([2]; baseline MRSA daptomycin MIC 0.25): 87.5%; Clinical response, wound or burn ([2]; baseline MRSA daptomycin MIC 0.5): 82.4%; Clinical response, wound or burn ([2]; baseline MRSA daptomycin MIC 1): 50.0%; Drug-related serious adverse event (kind) ([4]; one patient, just after initial dosing, resolved 4 days after discontinuation): anaphylactic shock; MIC90 ([1]; baseline isolates): 0.5 µg/mL (≈ 0.309 µM); MIC range ([1]; baseline isolates): 0.25 to 1 µg/mL; Mean CL/wt lower than in patients with normal renal function (CLcr >80 ml/min) ([5]; mild renal impairment (CLcr 50–80 ml/min)): approximately 15%; Mean CL/wt lower than in patients with normal renal function (CLcr >80 ml/min) ([5]; moderate renal impairment (CLcr 30 to <50 ml/min)): approximately 15%; AUC relative to patients with normal renal function ([5]; one patient with CLcr <30 ml/min): approximately 1.4 times higher; Mean CL/wt lower than in patients with normal renal function (CLcr >80 ml/min) ([5]; severe renal impairment (CLcr <30 ml/min)): ~38%
CN[C@H](CC(C)C)C(=O)N[C@H]1C(=O)N[C@@H](CC(N)=O)C(=O)N[C@H]2C(=O)N[C@H]3C(=O)N[C@H](C(=O)N[C@H](C(=O)O)c4cc(O)cc(O)c4-c4cc3ccc4O)[C@H](O)c3ccc(c(Cl)c3)Oc3cc2cc(c3O[C@@H]2O[C@H](CO)[C@@H](O)[C@H](O)[C@H]2O[C@H]2C[C@](C)(N)[C@H](O)[C@H](C)O2)Oc2ccc(cc2Cl)[C@H]1O [Vancomycin, vancomycin] | 0.5 to 2 | – | 84.6 | 0.0 | 9.1 | 592 U/l | 1 (≈ 0.69 µM) | –
teicoplanin | 0.25 to 8 | – | – | – | – | – | 4 | –
NCC[C@H](O)C(=O)N[C@@H]1C[C@H](N)[C@@H](O[C@H]2O[C@H](CN)CC[C@H]2N)[C@H](O)[C@H]1O[C@H]1O[C@H](CO)[C@@H](O)[C@H](N)[C@H]1O [arbecacin] | 0.25 to 4 | 2 (≈ 3.62 µM) | – | – | – | – | – | –
